# Like-named read-outs stand apart in the source and are kept apart here.
# Experiments:
# [1] = biological target: T1, human topoisomerase I (Homo sapiens, UniProt P11387); details: relative topoisomerase I inhibition levels, previously determined, six levels (0 - 5, +++++ = 5); cited from earlier work
# T1 sequence (P11387 1-765): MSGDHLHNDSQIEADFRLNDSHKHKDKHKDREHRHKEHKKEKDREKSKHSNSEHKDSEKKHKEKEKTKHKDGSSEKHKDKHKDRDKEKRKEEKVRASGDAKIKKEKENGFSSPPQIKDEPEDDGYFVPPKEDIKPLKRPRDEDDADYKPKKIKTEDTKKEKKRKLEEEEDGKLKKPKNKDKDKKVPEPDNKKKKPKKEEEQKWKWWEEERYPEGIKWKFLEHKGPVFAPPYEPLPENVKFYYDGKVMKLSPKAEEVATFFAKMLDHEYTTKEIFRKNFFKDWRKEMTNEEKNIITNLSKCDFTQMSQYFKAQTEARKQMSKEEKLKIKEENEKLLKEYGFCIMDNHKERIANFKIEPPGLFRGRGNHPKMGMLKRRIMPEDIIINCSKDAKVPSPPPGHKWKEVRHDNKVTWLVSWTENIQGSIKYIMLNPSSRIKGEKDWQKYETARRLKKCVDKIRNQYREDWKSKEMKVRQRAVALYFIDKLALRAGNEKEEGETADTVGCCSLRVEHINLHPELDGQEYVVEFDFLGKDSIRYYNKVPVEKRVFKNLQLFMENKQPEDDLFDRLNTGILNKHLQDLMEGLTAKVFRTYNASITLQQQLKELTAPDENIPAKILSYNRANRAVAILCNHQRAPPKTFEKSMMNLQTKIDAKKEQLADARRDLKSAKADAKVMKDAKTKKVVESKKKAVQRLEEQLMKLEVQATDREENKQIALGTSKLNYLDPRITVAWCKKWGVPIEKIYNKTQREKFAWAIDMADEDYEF
# [2] = system: MYC protein expression in MCF-7 breast cancer cells; assay: Western blotting of MYC protein level in MCF-7 cells; assay type: cell-based, human; details: MCF-7, 0.5, 1, 2, and 4 μM, 24 h
# How it was run: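 Immunoblotting with ECL detection quantified MYC, with GAPDH (1:2000) as reference and anti-MYC at 1:1000.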
# [3] = system: MycG4 (MycPu22 DNA); assay: 1H NMR titration of MycPu22 DNA; assay type: binding, human; details: 150 μM DNA, 25° C., pH 7, 100 mM K+
# How it was run: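 Oligonucleotide at 150 (so in the source) in 75 mM KCl, 25 mM phosphate pH 7.0, 90/10% H2O/D2O, heat-annealed at 95 °C then slowly cooled to form G4. Compound titrated at 0.5 to 4 equivalents and 1H spectra recorded at 25 °C on a 500 MHz instrument with Watergate water suppression.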
# [4] = system: NCI-60 cancer cell lines; assay: NCI-60 cancer cell line drug screen (GI50, MGM); assay type: cell-based, human; details: Homo sapiens; for GI50: read-out: Antiproliferative Activities [GI50 (μM)]
# Method: Cancer cells were incubated with the test compounds at five concentrations ranging from 100 μM to 10 nM for 48 h. […] The approximate average of GI50 values across the entire panel of NCI-60 cancer cell lines for each compound was recorded as the MGM value.
compound,measurement,setting,value
COc1cnc2c(c1)C(=O)c1c-2n(CCCN2CCCC2)c(=O)c2cc([N+](=O)[O-])ccc12 [Compound 9],Top1 Inhibiton,[1],"++ (medium inhibition, ++, MYC expression inhibited at 2.0 μM, or no clear dose-dependent MYC inhibition)"
same,"MYC-inhibitory effect (MYC protein, western blot)",[2],clear MYC-inhibitory effect
same,binding to MycG4 by 1H NMR titration,[3],less well-defined MycG4 complexes
same,GI50,"[4]; 786-0, Renal Cancer, 786-0",0.03 µM
same,GI50,"[4]; A549, Non-Small Cell Lung Cancer, A549/ATCC",0.05 µM
same,GI50,"[4]; ACHN, Renal Cancer, ACHN",< 0.01 µM
same,GI50,"[4]; BT-549, Breast Cancer, BT-549",0.35 µM
same,GI50,"[4]; CAKI-1, Renal Cancer, CAKI-1",< 0.01 µM
same,GI50,"[4]; CCRF-CEM, Leukemia, CCRF-CEM",< 0.01 µM
same,GI50,"[4]; COLO 205, Colon Cancer, COLO 205",0.04 µM
same,GI50,"[4]; DU-145, Prostate Cancer, DU-145",0.02 µM
same,GI50,"[4]; EKVX, Non-Small Cell Lung Cancer, EKVX",0.3 µM
same,GI50,"[4]; HCC 2998, Colon Cancer, HCC-2998",0.16 µM
same,GI50,"[4]; HCT-15, Colon Cancer, HCT-15",0.06 µM
same,GI50,"[4]; HCT-116, Colon Cancer, HCT-116",< 0.01 µM
same,GI50,"[4]; HL-60, Leukemia, HL-60(TB)",0.03 µM
same,GI50,"[4]; HOP-62, Non-Small Cell Lung Cancer, HOP-62",< 0.01 µM
same,GI50,"[4]; HOP-92, Non-Small Cell Lung Cancer, HOP-92",0.55 µM
same,GI50,"[4]; HT-29, Colon Cancer, HT29",0.02 µM
same,GI50,"[4]; Hs-578T, Breast Cancer, HS 578T",1.91 µM
same,GI50,"[4]; IGROV-1, Ovarian Cancer, IGROV1",0.02 µM
same,GI50,"[4]; K562, Leukemia, K-562",0.02 µM
same,GI50,"[4]; KM12, Colon Cancer, KM12",0.14 µM
same,GI50,"[4]; LOX IMVI, Melanoma, LOX IMVI",< 0.01 µM
same,GI50,"[4]; Leukemia, SR",< 0.01 µM
same,GI50,"[4]; MCF7, Breast Cancer, MCF7",< 0.01 µM
same,GI50,"[4]; MDA-MB-231, Breast Cancer, MDA-MB-231/ATCC",0.68 µM
same,GI50,"[4]; MDA-MB-435, Melanoma, MDA-MB-435",0.06 µM
same,GI50,"[4]; MDA-MB-468, Breast Cancer, MDA-MB-468",0.03 µM
same,GI50,"[4]; MOLT-4, Leukemia, MOLT-4",< 0.01 µM
same,GI50,"[4]; Malme-3M, Melanoma, MALME-3M",0.06 µM
same,GI50,"[4]; Melanoma, M14",< 0.01 µM
same,GI50,"[4]; NCI-H23, Non-Small Cell Lung Cancer, NCI-H23",0.03 µM
same,GI50,"[4]; NCI-H226, Non-Small Cell Lung Cancer, NCI-H226",0.1 µM
same,GI50,"[4]; NCI-H322M, Non-Small Cell Lung Cancer, NCI-H322M",0.05 µM
same,GI50,"[4]; NCI-H460, Non-Small Cell Lung Cancer, NCI-H460",< 0.01 µM
same,GI50,"[4]; NCI-H522, Non-Small Cell Lung Cancer, NCI-H522",0.06 µM
same,GI50,"[4]; OVCAR-3, Ovarian Cancer, OVCAR-3",0.06 µM
same,GI50,"[4]; OVCAR-4, Ovarian Cancer, OVCAR-4",0.08 µM
same,GI50,"[4]; OVCAR-5, Ovarian Cancer, OVCAR-5",0.16 µM
same,GI50,"[4]; OVCAR-8, Ovarian Cancer, OVCAR-8",0.09 µM
same,GI50,"[4]; Ovarian Cancer, NCl/ADR-RES",0.03 µM
same,GI50,"[4]; Prostate Cancer, PC-3",0.07 µM
same,GI50,"[4]; RPMI-8226, Leukemia, RPMI-8226",0.04 µM
same,GI50,"[4]; RXF 393, Renal Cancer, RXF 393",0.06 µM
same,GI50,"[4]; Renal Cancer, U0-31",< 0.01 µM
same,GI50,"[4]; SF-268, CNS Cancer, SF-268",0.02 µM
same,GI50,"[4]; SF-295, CNS Cancer, SF-295",< 0.01 µM
same,GI50,"[4]; SF-539, CNS Cancer, SF-539",0.03 µM
same,GI50,"[4]; SK-MEL-2, Melanoma, SK-MEL-2",1.01 µM
same,GI50,"[4]; SK-MEL-5, Melanoma, SK-MEL-5",0.07 µM
same,GI50,"[4]; SK-MEL-28, Melanoma, SK-MEL-28",10.6 µM
same,GI50,"[4]; SK-OV-3, Ovarian Cancer, SK-OV-3",0.03 µM
same,GI50,"[4]; SN12C, Renal Cancer, SN12C",0.04 µM
same,GI50,"[4]; SNB-19, CNS Cancer, SNB-19",0.04 µM
same,GI50,"[4]; SNB-75, CNS Cancer, SNB-75",0.05 µM
same,GI50,"[4]; SW-620, Colon Cancer, SW-620",< 0.01 µM
same,GI50,"[4]; T47D, Breast Cancer, T-47D",0.02 µM
same,GI50,"[4]; TK-10, Renal Cancer, TK-10",0.37 µM
same,GI50,"[4]; U-251, CNS Cancer, U251",0.01 µM
same,GI50,"[4]; UACC-62, Melanoma, UACC-62",0.02 µM
same,GI50,"[4]; UACC-257, Melanoma, UACC-257",0.18 µM
same,mean GI50 across NCI-60 panel (MGM),[4]; average of GI50 values across the entire panel of NCI-60 cancer cell lines,45 nM
